Laboratory results published in patent US7906520B2, “Methods for treating pain” (The General Hospital Corporation, priority 2003, dated 2011).

Assays:
GTPCH-1 expression = experiment: GTPCH-I in situ hybridization in DRG after SNI; format: in vivo; conditions: 14 days after SNI surgery, DAHP vs vehicle
Text: FIG. 27A is a series of photomicrographs of in situ hybridization of GTPCH-I in the ipsilateral (lesioned) and contralateral (control) dorsal root ganglia 3 days (top panel) and 14 days (bottom panel) after SNI surgery. FIG. 27B is a series of photomicrographs of GTPCH-I in situ hybridization 14 days after SNI surgery and treatment with either DAHP or vehicle control.

dorsal horn neurons = experiment: TUNEL staining of apoptotic profiles in L4/L5 dorsal horn after SNI; format: in vivo; conditions: DAHP 180 mg/kg/day i.p., 7 days after SNI
Procedure: FIG. 25 is a bar graph showing the number of apoptotic cell profiles, using TUNEL staining, observed in the L4/L5 dorsal horn 7 days after SNI surgery of animals treated with either 180 mg/kg/day DAHP or vehicle control. Apoptotic neurons were detected by in situ TUNEL labeling and counted by a blinded observer.

[1] = tested on: CCI model of neuropathic pain; experiment: Chronic constriction injury (CCI) model of neuropathic pain; format: in vivo, rat; conditions: 180 mg/kg/d i.p.
Procedure: FIGS. 9A and 9B are two graphs showing the effect of DAHP on nociceptive behavior in the CCI model of neuropathic pain. […] DAHP treatment (180 mg/kg/d i.p. for 5 days) was started 3 days after surgery and nociceptive behavior was assessed daily before and after drug injection and once every second day after stopping daily drug injections.
All procedures were performed in accordance with Massachusetts General Hospital animal care regulations. Adult male Sprague Dawley rats (200-300 g) were anesthetized with halothane. For the sciatic nerve transection (axotomy), the left sciatic nerve was exposed at the mid thigh level, ligated with 3/0 silk, and sectioned distally. The wound was sutured in two layers, and the animals were allowed to recover. For SNI the tibial and peroneal branch of the sciatic nerve were ligated and transected whereas the sural nerve was spared. For CCI, the sciatic nerve was loosely ligated with dexon 4/0 (three ligatures) and for the spinal ligation model the L5 spinal segmental nerve was ligated.

BH4 biosynthesis = experiment: Tissue biopterin and neopterin levels after SNI (LC-MS/MS); format: in vivo; conditions: with DAHP administration
Procedure: FIG. 30 is a series of bar graphs quantifying the levels of the BH4 metabolites biopterin and neopterin in the DH, DRG, and ScN following SNI surgery with and without DAHP treatment, compared to control.
Using the preferred method, tissue neopterin and biopterin levels were determined with a liquid chromatography tandem mass spectrometry method. After acidic pH oxidation with iodine according to Fukushima and Nixon (Methods Enzymol. 66: 429-436, 1980) tissues were extracted by solid phase extraction employing Oasis MCX extraction cartridges and concentrations of total biopterin, neopterin and the internal standard rhamnopterin were determined by liquid chromatography coupled to tandem mass spectrometry. HPLC analysis was done under gradient conditions using a Nucleosil C8 column. MS/MS analyses were performed on an API 4000 Q TRAP triple quadrupole mass spectrometer with a Turbo Ion Spray source. Precursor-to-product ion transitions of m/z 236 192 for biopterin, m/z 252 192 for neopterin, m/z 265 192 for rhamnopterin were used for the MRM. Concentrations of the calibration standards, quality controls and samples were evaluated by Analyst software 1.4 (Applied Biosystems). Linearity of the calibration curve was proven from 0.1-50 ng/ml. The coefficient of correlation for all measured sequences was at least 0.99. The intra-day and inter-day variability was <10%.

naïve rats = experiment: Response to tactile and heat stimuli in naïve rats; format: in vivo, rat; conditions: non-injured animals
Procedure: FIGS. 13A and 13B are a series of graphs showing the effects of DAHP on the response to tactile (13A) and heat stimuli (13B) in naïve rats. A single dose of DAHP (180 mg/kg i.p.) or vehicle was injected at time “zero”.
Hypersensitivity was induced using the CFA model of paw inflammation. In these experiments, BH4 was injected at time “zero” after measurement of baseline paw withdrawal latency.

[2] = tested on: formalin injection into the hindpaw; experiment: Formalin test: flinching behavior and cFos immunoreactivity in dorsal horn; format: in vivo, rat
Procedure: DAHP (180 mg/kg) was injected i.p. one hour before injection of formalin into the hindpaw. Flinches were counted for one hour starting right after formalin injection. FIG. 24A is a series of photo micrographs showing cFos immunoreactivity in ipsilateral dorsal horn neurons two hours after formalin injection in DAHP and vehicle-treated rats. FIG. 24B is a bar graph quantifying the number of cFos immunoreactive cell bodies observed under each condition.

SNI model = experiment: SNI model, L-NAME versus DAHP; format: in vivo; conditions: DAHP 120 mg/kg i.p. single dose vs L-NAME 25 mg/kg i.p.
Procedure: In this figure, closed circles represent nNOS knockout mice with DAHP; open circles, nNOS knock out mice with vehicle; closed triangles, wild type mice with DAHP; and open triangles, wild type mice with vehicle. […] In this figure, closed triangles represent L-NAME administration; open circles, L-NAME+DAHP administration; closed circles, DAHP administration; and open triangles, vehicle administration. L-NAME was administered at 25 mg/kg, i.p., single dose, and DAHP was administered at 120 mg/kg, i.p., single dose. The antinociceptive efficacy of this high L-NAME dose is weaker (about 50%) than that of a moderate dose of DAHP.

## Nc1cc(O)nc(N)n1 [DAHP, 2,4-Diamino-6-hydroxypyrimidine]
GTPCH-1 expression
  GTPCH-1 expression in DRG: does not affect GTPCH-1 expression
Dorsal horn neurons
  apoptosis of dorsal horn neurons (TUNEL): protects dorsal horn neurons from apoptosis
[1]
  analgesic effects in CCI model: analgesic effects of DAHP were further confirmed
BH4 biosynthesis; DH, DRG, ScN
  biopterin increases after SNI: reversed in the DH and the ScN, but not the DRG
BH4 biosynthesis; DRG and ScN
  neopterin increases after SNI: reversed
naïve rats; DAHP 180 mg/kg i.p. single dose
  motor activity, von Frey and Hargreaves tests: did not result in a difference in motor activity
naïve rats; DAHP
  sedation, general level of activity: no obvious signs of sedation
[2]; single i.p. dose of 180 mg/kg
  flinching behavior in the formalin assay: reduced the flinching behavior
[2]; two hours after formalin, intraperitoneal DAHP, p<0.05
  c-FOS immunoreactivity in ipsilateral dorsal horn neurons: significantly reduced elevation
SNI model
  antinociceptive effect compared with L-NAME: stronger antinociceptive effect
